# Legend:
# [1] = system: mouse; assay: spontaneous motility of mouse, Activograph method; type: in vivo; conditions: read-out: inhibiting effect on spontaneous motility at maximum dose administered
# Description: (§1) Spontaneous motility of mouse:
# (§2) inhibiting effect observed at
# (§3) maximum dose administered
# (§4) Adminis- WINTER & Activograph
# [2] = system: histamine; assay: interaction with histamine, isolated ileum of guinea pig
# Description: Finally, researchers looked for interaction between the benzamide according to the invention and histamine, in the arterial pressure of an anaesthetised dog and the isolated ileum of a guinea pig.
# [3] = system: mice; assay: duration of barbituric (pentobarbital) hypnosis; type: in vivo, mouse
# Description: Adminis- Dose Time of hypnosis, mice treated
# Product tration mg/kg Time of hypnosis, control mice
# N.B. The barbiturate used is pentobarbital in a dose of 60 mg/kg given
# [4] = system: serotonin; assay: gastric ulcer producing effect of serotonin in the rat; type: in vivo; conditions: sc, subcutaneously, read-out: effective dose 50 (protection against gastric ulcer producing effect of serotonin)
# [5] = system: migraine; assay: comparative crossed double blind study versus oxetorone in migraine; type: in vivo; conditions: 63 migraine patients, 150 mg per day vs oxetorone 120 mg, 30 days
# Description: (1) A comparative study, by a crossed double blind method, the reference product being oxetorone, which is medically known, applied to migraine. The study covered 63 migraine patients, the two treatments being applied for 30 days with an adequate interruption between sequences.
# [6] = system: serotonin; assay: hypertensive response to serotonin, anaesthetised dog treated with chlorisondamine; type: in vivo
# Description: (§5) The effects of the benzamide on the cardiovascular system were studied in a dog anaesthetised with chloralose, with the following results:
# % inhibition of hypertension after […]
# [7] = anticonvulsive action (electric shock, pentetrazol, nicotine, auditory stimulus); type: in vivo; conditions: nicotine or auditory stimulus
# [8] = system: noradrenalin; assay: hypertensive response to noradrenalin, anaesthetised dog; type: in vivo; conditions: for % reduction relative to control hypertension (R): noradrenalin
# Description: as §5
# Noradrenalin 0.5 R = 21%
# [9] = system: cerebral arteries; assay: cerebral haemodynamics of migraine patients (pulsatility of cerebral arteries); type: in vivo
# Description: The first clinical pharmacological investigation consisted of exploring the cerebral haemodynamics of migraine patients by a non-invasive method, through recording the pulsatility of the cerebral arteries. […] Graphs were thus plotted after the benzamide according to the invention had been absorbed by migraine patients.
# This is maintained under treatment with repeated doses (150 mg/day) given orally for 3 weeks.
# [10] = system: rat; assay: stereotypic movements of the rat caused by dopaminergic agonists (apomorphine or amphetamine); type: in vivo
# [11] = system: isolated uterus; assay: serotonin-induced contraction of isolated uterus; conditions: isolated uterus of a rat, contraction produced by serotonin
# Description: inhibited contraction of the isolated uterus of a rat, produced by serotonin. The contraction inhibiting dose 50 is of the order of 0.2 mg/l.
# [12] = system: arterial pressure; assay: arterial pressure in dog anaesthetised with chloralose; type: in vivo
# Description: as §5
# Variations in arterial pressure
# (mg/kg/I.V.) relative to initial pressure
# [13] = system: nicotine; assay: hypertensive response to nicotine (orthosympathetic component), anaesthetised dog; type: in vivo; conditions: for % reduction of orthosympathetic component (R): nicotine
# Description: (§6) The effects of the benzamide on the cardiovascular system were studied in a dog anaesthetised with chloralose, with the following results: […]
# [14] = system: isolated ileum; assay: anticholinergic action in vitro on isolated ileum; conditions: isolated ileum of guinea pig
# [15] = system: carotid arteries; assay: hypertensive response to blocking of carotid arteries, anaesthetised dog; type: in vivo; conditions: for % reduction relative to control hypertension (R): blocking of carotid arteries for 30 seconds
# Description: as §6
# [16] = system: migraine; assay: comparative study with Pizotifene in migraine; type: in vivo; conditions: 17 migraine patients, 150 mg per day orally
# Description: (2) A comparative study with Pizotifene, an anti-histamine and antiserotonin compound which is also used in the basic treatment for migraine.
# The study covered 17 patients suffering true attacks of migraine of regular frequency, which thus enabled the effectiveness of the treatment to be assessed from the number and intensity of attacks during a period of one month.
# The benzamide according to the invention was applied orally in a dose of 150 mg per day, in three times. The Pizotifene was also administered orally, with the progressive dosage recommended for the product (0.73 mg×1 for 3 days-0.73 mg×2 for 3 days-0.73 mg×3 for 24 days).
# The patients were distributed at random between the treatments.
# [17] = system: hypotensive response to acetylcholine or to excitation of the vagus nerve; assay: hypotensive response to acetylcholine or excitation of the vagus nerve, anaesthetised dog; type: in vivo
# Description: as §6
# [18] = system: mouse; assay: spontaneous motility of mouse, WINTER & FLATAKER method; type: in vivo
# Description: The researchers were looking for the effects of the benzamide on the central nervous system and particularly for any neuroleptic action.
# as §1, §2, §3, §4
# [19] = BATCH 1, 1 mg/kg I.V., serotonin 37.5 μg/kg I.V.
# [20] = BATCH 1, 5 mg/kg I.V., serotonin 25 μg/kg I.V.
# [21] = BATCH 2, 1 mg/kg I.V., serotonin 25 μg/kg I.V.
# [22] = BATCH 2, 5 mg/kg I.V., serotonin 25 μg/kg I.V.
structure (smiles),measurement,setting,value
"C=CCN1CCCC1CNC(=O)c1cc(S(=O)(=O)NC)c(N)cc1OC (centres unmarked) [Benzamide according to the invention, N-(1-allyl-2-pyrrolidinyl-methyl)2-methoxy-4-amino-5-methylsulfamoyl benzamide]",inhibition at 80 mg/kg,"[1]; ip, I.P., 80 mg/kg",22%
same,inhibition at 300 mg/kg,"[1]; po, P.O., 300 mg/kg",25%
same,anti-histamine properties,[2],No anti-histamine properties were revealed
same,"Time of hypnosis, mice treated / Time of hypnosis, control mice","[3]; I.P., 80 mg/kg, pentobarbital 60 mg/kg intraperitoneally",1.6
same,extension of the duration of barbituric hypnosis,"[3]; mouse, in vivo",does not extend the duration of barbituric hypnosis
same,ED50,[4],~3 mg/kg
same,therapeutic effectiveness and tolerance versus oxetorone,[5],statistically superior to oxetorone
same,% inhibition of hypertension after 3 mn,[6]; [19],22%
same,% inhibition of hypertension after 30 mn,[6]; [19],8%
same,% inhibition of hypertension after 3 mn,[6]; [20],62%
same,% inhibition of hypertension after 30 mn,[6]; [20],63%
same,% inhibition of hypertension after 1 h,[6]; [20],51%
same,% inhibition of hypertension after 1 h 30,[6]; [20],51%
same,% inhibition of hypertension after 2 h,[6]; [20],40%
same,% inhibition of hypertension after 3 mn,[6]; [21],36%
same,% inhibition of hypertension after 30 mn,[6]; [21],11%
same,% inhibition of hypertension after 1 h,[6]; [21],0%
same,% inhibition of hypertension after 3 mn,[6]; [22],78%
same,% inhibition of hypertension after 30 mn,[6]; [22],65%
same,% inhibition of hypertension after 1 h,[6]; [22],48%
same,% inhibition of hypertension after 1 h 30,[6]; [22],43%
same,% inhibition of hypertension after 2 h,[6]; [22],33%
same,% inhibition of hypertension after 3 h,"[6]; BATCH 2, 5 mg/kg I.V., serotonin 25 μg/kg I.V., 3 h",33%
same,hypertensive response to serotonin,"[6]; anaesthetised dog, chlorisondamine",reduces the hypertensive response to serotonin
same,anticonvulsive action,[7],no anticonvulsive action
same,hypertensive responses caused by noradrenalin,[8]; anaesthetised dog,reduces the hypertensive responses
same,% reduction relative to control hypertension (R),[8]; cumulative dose 0.5 mg/kg I.V.,21%
same,% reduction relative to control hypertension (R),[8]; cumulative dose 1 mg/kg I.V.,13%
same,% reduction relative to control hypertension (R),[8]; cumulative dose 2 mg/kg I.V.,30%
same,% reduction relative to control hypertension (R),[8]; cumulative dose 4 mg/kg I.V.,30%
same,% reduction relative to control hypertension (R),[8]; cumulative dose 8 mg/kg I.V.,40%
same,% reduction relative to control hypertension (R),[8]; cumulative dose 16 mg/kg I.V.,49%
same,% reduction relative to control hypertension (R),[8]; cumulative dose 32 mg/kg I.V.,66%
same,maintenance of graph normalisation,[9]; repeated doses 150 mg/day orally for 3 weeks,maintained
same,graph of cerebral artery pulsatility,[9]; single 100 mg intramuscular injection,the graph moves towards normalisation in 2 hours
same,counteraction of stereotypic movements,[10],does not counteract the stereotypic movements of the rat
same,contraction inhibiting dose 50,[11],~0.2 mg/L
same,Variations in arterial pressure relative to initial pressure,[12]; cumulative dose 0.5 mg/kg I.V.,-21%
same,Variations in arterial pressure relative to initial pressure,[12]; cumulative dose 1 mg/kg I.V.,-32%
same,Variations in arterial pressure relative to initial pressure,[12]; cumulative dose 2 mg/kg I.V.,-36%
same,Variations in arterial pressure relative to initial pressure,[12]; cumulative dose 4 mg/kg I.V.,-48%
same,Variations in arterial pressure relative to initial pressure,[12]; cumulative dose 8 mg/kg I.V.,-54%
same,Variations in arterial pressure relative to initial pressure,[12]; cumulative dose 16 mg/kg I.V.,-59%
same,Variations in arterial pressure relative to initial pressure,[12]; cumulative dose 32 mg/kg I.V.,-58%
same,arterial pressure,[12]; dog anaesthetised with chloralose,drop in arterial pressure proportional to the dose administered
same,hypertensive responses caused by small doses of nicotine,[13]; anaesthetised dog,reduces the hypertensive responses
same,% reduction of orthosympathetic component (R),[13]; cumulative dose 0.5 mg/kg I.V.,0%
same,% reduction of orthosympathetic component (R),[13]; cumulative dose 1 mg/kg I.V.,0%
same,% reduction of orthosympathetic component (R),[13]; cumulative dose 2 mg/kg I.V.,0%
same,% reduction of orthosympathetic component (R),[13]; cumulative dose 4 mg/kg I.V.,0%
same,% reduction of orthosympathetic component (R),[13]; cumulative dose 8 mg/kg I.V.,0%
same,% reduction of orthosympathetic component (R),[13]; cumulative dose 16 mg/kg I.V.,49%
same,% reduction of orthosympathetic component (R),[13]; cumulative dose 32 mg/kg I.V.,79%
same,anticholinergic action,[14],no anticholinergic action
same,hypertensive responses caused by blocking the carotid arteries,[15]; anaesthetised dog,reduces the hypertensive responses
same,% reduction relative to control hypertension (R),[15]; cumulative dose 0.5 mg/kg I.V.,0%
same,% reduction relative to control hypertension (R),[15]; cumulative dose 1 mg/kg I.V.,30%
same,% reduction relative to control hypertension (R),[15]; cumulative dose 2 mg/kg I.V.,43%
same,% reduction relative to control hypertension (R),[15]; cumulative dose 4 mg/kg I.V.,48%
same,% reduction relative to control hypertension (R),[15]; cumulative dose 8 mg/kg I.V.,86%
same,% reduction relative to control hypertension (R),[15]; cumulative dose 16 mg/kg I.V.,90%
same,% reduction relative to control hypertension (R),[15]; cumulative dose 32 mg/kg I.V.,100%
same,effectiveness versus Pizotifene,[16],more effective than the second reference compound
same,hypotensive response to acetylcholine or to excitation of the vagus nerve,[17],does not change the hypotensive response
same,inhibition at 80 mg/kg,"[18]; Mus musculus, ip, I.P., 80 mg/kg, WINTER & FLATAKER method, read-out: inhibiting effect on spontaneous motility at maximum dose administered",26%
same,inhibition at 300 mg/kg,"[18]; Mus musculus, po, P.O., 300 mg/kg, WINTER & FLATAKER method, read-out: inhibiting effect on spontaneous motility at maximum dose administered",20%
same,reduction of spontaneous motility,"[18]; mouse, even in high doses",only very slightly reduces the spontaneous motility of the mouse
same,depressive action (central nervous system),"[18]; mouse, in vivo",very little depressive action
